Drawing on patent US20130029970A1 (priority 2009, published 2013), this text covers EC50 and IC50 for 26 compounds.

For orientation: pEC50 means −log10 of the EC50, conventionally taken in molar units. One may read the pIC50 as −log10 of the IC50, conventionally taken in molar units.

pEC50, pIC50: −log10 of the molar value. Read-outs that look alike come from different tables or passages of the source.

One assay has as its target T1, human CB2 (hCB2) (Homo sapiens, UniProt P34972).
T1 construct: (cDNA clone) CNR0200000
The assay can be described thus: 35S GTPγS binding assay, hCB2 agonist. The format is biochemical. The method, boiled down:
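Agonist-stimulated [35S]GTPγS (0.1 nM) binding measured by scintillation proximity after 90 min at room temperature. Reaction buffer: 50 mM HEPES pH 7.4, 100 mM NaCl, 5 mM MgCl2, 0.001% saponin plus 20 uM GDP. Membranes (5 μg) came from transfected cells expressing hCB2 cDNA (pcDNA3.1+ vector).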
Background: GTPγS is a poorly hydrolysed GTP analogue; its binding reports G protein activation.

For a further assay, the target named is T2, human CB2 receptors (Homo sapiens, UniProt P34972).
T2 construct: (cDNA clone) CNR0200000
T2 sequence (P34972 whole entry): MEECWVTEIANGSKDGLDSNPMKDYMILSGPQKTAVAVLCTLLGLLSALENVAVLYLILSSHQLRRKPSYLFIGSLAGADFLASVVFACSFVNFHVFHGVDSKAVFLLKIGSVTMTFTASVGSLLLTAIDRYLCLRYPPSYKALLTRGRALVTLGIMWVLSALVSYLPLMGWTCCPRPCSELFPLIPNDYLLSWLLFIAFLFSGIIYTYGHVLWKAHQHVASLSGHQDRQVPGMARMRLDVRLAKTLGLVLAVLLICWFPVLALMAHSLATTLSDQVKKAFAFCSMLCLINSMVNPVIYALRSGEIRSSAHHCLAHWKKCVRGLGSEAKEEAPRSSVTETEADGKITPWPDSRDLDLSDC
The assay can be described thus: cAMP assay in HEK-293 cells, hCB2 agonist. The format is cell-based. The method, boiled down:
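Stable hCB2 HEK-293 cells in HBSS/10 mM HEPES/0.1% fatty-acid-free BSA incubated 30 min at 37° C with compound; forskolin 90 uM in 3× compound mix.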
For orientation: Cyclic AMP is a second messenger, typically raised through Gs and lowered through Gi signalling.

Assay [1] concerns the target T3, recombinant human cannabinoid receptor CB1 (Homo sapiens, UniProt P21554).
T3 construct: (cDNA clone) CNR01L000
The assay can be described thus: Cannabinoid receptor radioligand binding assay, [3H]-CP 55,940 displacement, hCB1. The method, boiled down:
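Displacement of 0.5 nM [3H]-CP 55,940 (1 μM unlabeled CP 55,940 for nonspecific) measured by filtration and scintillation counting. Binding ran 90 min at room temperature in pH 7.5 Tris buffer with 0.1% fatty-acid-free BSA, using recombinant hCB1 HEK-293 membranes at 2-10 μg protein.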

Setting [2] is: GTPγS agonist, HEK-293 membranes, read-out: hCB2 EC50 (GTPyS ag).
Where [3] appears, read: inhibition of forskolin-stimulated cAMP, HEK-293 cells, read-out: hCB2 EC50 (cAMP ag).

T3 sequence (P21554 whole entry): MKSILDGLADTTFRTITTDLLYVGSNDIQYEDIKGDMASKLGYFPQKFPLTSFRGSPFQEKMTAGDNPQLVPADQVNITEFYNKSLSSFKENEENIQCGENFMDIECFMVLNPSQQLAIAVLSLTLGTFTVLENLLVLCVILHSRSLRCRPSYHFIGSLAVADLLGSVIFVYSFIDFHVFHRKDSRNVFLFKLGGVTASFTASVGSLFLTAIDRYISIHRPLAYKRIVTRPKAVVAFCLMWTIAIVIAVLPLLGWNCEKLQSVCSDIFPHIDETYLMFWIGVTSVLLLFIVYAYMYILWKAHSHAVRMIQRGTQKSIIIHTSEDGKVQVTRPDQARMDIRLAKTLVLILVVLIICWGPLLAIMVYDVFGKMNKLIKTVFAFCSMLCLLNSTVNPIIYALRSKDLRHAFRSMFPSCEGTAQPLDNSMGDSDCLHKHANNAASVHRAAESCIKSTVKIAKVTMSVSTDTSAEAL
T1 sequence (P34972 whole entry): as the sequence (P34972 whole entry) above

As for `Cc1cc2cc(C(=O)c3ccc4c(c3)OCO4)sc2n1CCN1CCOCC1` [Compound 106, Benzo[d][1,3]dioxol-5-yl(5-methyl-6-(2-morpholinoethyl)-6H-thieno[2,3-b]pyrrol-2-yl)methanone], the pEC50 at human CB2 (hCB2) and at human CB2 receptors was over 7.00 each time. The pIC50 in assay [1] was 5.00 to 6.00.

As to `COc1ccc(C(=O)c2cc3cc(C)n(CCCN4CCOCC4)c3s2)cc1` [Compound 107, (4-Methoxyphenyl)(5-methyl-6-(3-morpholinopropyl)-6H-thieno[2,3-b]pyrrol-2-yl)methanone], the pEC50 at human CB2 (hCB2) (setting [2]) and on human CB2 receptors (setting [3]) was over 7.00 in each case. For the same compound, the pIC50 in assay [1] was 6.00 to 7.00.

Consider `COc1ccc(C(=O)c2cc3cc(C)n(CCCNC(C)(C)C)c3s2)cc1` [Compound 108, (6-(3-(tert-Butylamino)propyl)-5-methyl-6H-thieno[2,3-b]pyrrol-2-yl)(4-methoxyphenyl)methanone], for which the values for the pEC50 at human CB2 (hCB2) and at human CB2 receptors were 6.00 to 7.00 and 5.00 to 6.00, respectively. Further, in assay [1], the pIC50 is under 5.00.

For `COc1ccc(C(=O)c2cc3cc(C)n(CCCNS(C)(=O)=O)c3s2)cn1` [Compound 109, N-(3-(2-(6-Methoxynicotinoyl)-5-methyl-6H-thieno[2,3-b]pyrrol-6-yl)propyl)methanesulfonamide], the pEC50 at human CB2 (hCB2) (setting [2]) and at human CB2 receptors (setting [3]) was over 7.00 in each case. In addition, the pIC50 in assay [1] was under 5.00.

On to `COc1ccc(C(=O)c2cc3cc(C)n(CCN4CCSCC4)c3s2)cc1` [Compound 110, (4-Methoxyphenyl)(5-methyl-6-(2-thiomorpholinoethyl)-6H-thieno[2,3-b]pyrrol-2-yl)methanone], for which the pEC50 at human CB2 (hCB2) and on human CB2 receptors was over 7.00 throughout. Further, in assay [1], the pIC50 was 5.00 to 6.00.

`Cc1cc2cc(C(=O)c3ccc(OC(C)C)cc3)sc2n1CCN1CCOCC1` [Compound 111, (4-Isopropoxyphenyl)(5-methyl-6-(2-morpholinoethyl)-6H-thieno[2,3-b]pyrrol-2-yl)methanone]: the pEC50 at human CB2 (hCB2) is 6.00 to 7.00; at human CB2 receptors, over 7.00. Further, the pIC50 in assay [1] was 5.00 to 6.00.

As for `COc1ccc(C(=O)c2cc3cc(C)n(Cc4ccncc4)c3s2)cc1` [Compound 112, (4-Methoxyphenyl)(5-methyl-6-(pyridin-4-ylmethyl)-6H-thieno[2,3-b]pyrrol-2-yl)methanone], the pEC50 at human CB2 (hCB2) and on human CB2 receptors was 6.00 to 7.00 throughout. For the same compound, the pIC50 in assay [1] is 5.00 to 6.00.

For the compound `COc1ccc(C(=O)c2cc3cc(C)n(S(=O)(=O)N(C)C)c3s2)cn1` [Compound 113, 2-(6-Methoxynicotinoyl)-N,N,5-trimethyl-6H-thieno[2,3-b]pyrrole-6-sulfonamide], the pEC50 on human CB2 (hCB2) and at human CB2 receptors was over 7.00 each time. The pIC50 in assay [1] is 5.00 to 6.00.

In the case of `COc1ccc(C(=O)c2cc3cc(C)n(Cc4ccccc4)c3s2)c(Cl)c1` [Compound 114, (6-Benzyl-5-methyl-6H-thieno[2,3-b]pyrrol-2-yl)(2-chloro-4-methoxyphenyl)methanone], the pEC50 at human CB2 (hCB2) (setting [2]) is over 7.00; at human CB2 receptors (setting [3]) it was 5.00 to 6.00. Also, the pIC50 in assay [1] was 5.00 to 6.00.

For `CSc1ccc(C(=O)c2cc3cc(C)n(CCN4CCOCC4)c3s2)cc1` [Compound 115, (5-Methyl-6-(2-morpholinoethyl)-6H-thieno[2,3-b]pyrrol-2-yl)(4-(methylthio)phenyl)methanone], the pEC50 at human CB2 (hCB2) and at human CB2 receptors was 6.00 to 7.00 in each case. Besides, the pIC50 in assay [1] was 5.00 to 6.00.

`COc1ccc(C(=O)c2cc3cc(C)n(CCN4CCOCC4)c3s2)cc1Cl` [Compound 116, (3-Chloro-4-methoxyphenyl)(5-methyl-6-(2-morpholinoethyl)-6H-thieno[2,3-b]pyrrol-2-yl)methanone]: the pEC50 at human CB2 (hCB2) and at human CB2 receptors was over 7.00 throughout. Moreover, in assay [1], the pIC50 is 5.00 to 6.00.

Take `COc1ccc(C(=O)c2cc3cc(C)n(CCN4CCCCC4)c3s2)cn1` [Compound 117, (6-Methoxypyridin-3-yl)(5-methyl-6-(2-(piperidin-1-yl)ethyl)-6H-thieno[2,3-b]pyrrol-2-yl)methanone]: the pEC50 at human CB2 (hCB2) and at human CB2 receptors was over 7.00 each time. In addition, in assay [1], the pIC50 is 5.00 to 6.00.

In the case of `CCc1ccc(C(=O)c2cc3cc(C)n(CCN4CCOCC4)c3s2)cc1` [Compound 122, (4-Ethylphenyl)(5-methyl-6-(2-morpholinoethyl)-6H-thieno[2,3-b]pyrrol-2-yl)methanone], the pEC50 at human CB2 (hCB2) and on human CB2 receptors was over 7.00 in each case. Further, the pIC50 in assay [1] was 5.00 to 6.00.

For the compound `Cc1cc2cc(C(=O)c3cccc(Cl)n3)sc2n1CCN1CCOCC1` [Compound 123, (6-Chloropyridin-2-yl)(5-methyl-6-(2-morpholinoethyl)-6H-thieno[2,3-b]pyrrol-2-yl)methanone], the pEC50 at human CB2 (hCB2) is 6.00 to 7.00; at human CB2 receptors, over 7.00. Further, in assay [1], the pIC50 was 5.00 to 6.00.

Turning to `Cc1ccc(C(=O)c2cc3cc(C)n(CCN4CCOCC4)c3s2)cc1` [Compound 124, (5-Methyl-6-(2-morpholinoethyl)-6H-thieno[2,3-b]pyrrol-2-yl)(p-tolyl)methanone], the pEC50 at human CB2 (hCB2) and on human CB2 receptors was over 7.00 each time. The pIC50 in assay [1] was 5.00 to 6.00.

For `Cc1ccc(C(O)c2cc3cc(C)n(CCN4CCOCC4)c3s2)cn1` (stereo not drawn) [Compound 125, (5-Methyl-6-(2-morpholinoethyl)-6H-thieno[2,3-b]pyrrol-2-yl)(6-methylpyridin-3-yl)methanol], the negative-log EC50 (pEC50) at human CB2 (hCB2) and at human CB2 receptors was 6.00 to 7.00 throughout. The pIC50 in assay [1] is under 5.00.

In the case of `COc1cc(F)c(C(=O)c2cc3cc(C)n(CCN4CCOCC4)c3s2)c(F)c1` [Compound 127, (2,6-difluoro-4-methoxyphenyl)(5-methyl-6-(2-morpholinoethyl)-6H-thieno[2,3-b]pyrrol-2-yl)methanone], the pEC50 at human CB2 (hCB2) and at human CB2 receptors was over 7.00 throughout. Also, the negative-log IC50 (pIC50) in assay [1] was 5.00 to 6.00.

Regarding `Cc1ccc(C(=O)c2cc3cc(C)n(CCN4CCOCC4)c3s2)cn1` [Compound 130, (5-methyl-6-(2-morpholinoethyl)-6H-thieno[2,3-b]pyrrol-2-yl)(6-methylpyridin-3-yl)methanone], the pEC50 at human CB2 (hCB2) and on human CB2 receptors was 6.00 to 7.00 each time. Also, in assay [1], the pIC50 is under 5.00.

As for `COc1ccc(C(=O)c2cc3cc(C)n(CCN4CCOCC4)c3s2)nc1` [Compound 131, (5-methoxypyridin-2-yl)(5-methyl-6-(2-morpholinoethyl)-6H-thieno[2,3-b]pyrrol-2-yl)methanone], the pEC50 on human CB2 (hCB2) and on human CB2 receptors was over 7.00 in each case. For the same compound, the pIC50 in assay [1] was 5.00 to 6.00.

Regarding `Cc1cc2cc(C(=O)c3ccc(N(C)C(=O)OC(C)(C)C)cc3)sc2n1CCN1CCOCC1` [Compound 132, tert-butylmethyl(4-(5-methyl-6-(2-morpholinoethyl)-6H-thieno[2,3-b]pyrrole-2-carbonyl)phenyl)carbamate], the pEC50 on human CB2 (hCB2) and at human CB2 receptors was 6.00 to 7.00 throughout. In assay [1], the pIC50 is 5.00 to 6.00.

`CNc1ccc(C(=O)c2cc3cc(C)n(CCN4CCOCC4)c3s2)cc1` [Compound 134, (5-methyl-6-(2-morpholinoethyl)-6H-thieno[2,3-b]pyrrol-2-yl)(4-(methylamino)phenyl)methanone]: the pEC50 on human CB2 (hCB2) was 6.00 to 7.00; on human CB2 receptors, over 7.00. In addition, the pIC50 in assay [1] is 5.00 to 6.00.

As for `COc1ccc(C(=O)c2cc3cc(C)n(CCN4CCOCC4)c3s2)c(Cl)n1` [Compound 137, (2-chloro-6-methoxypyridinyl-3-yl)(5-methyl-6-(2-morpholinoethyl)-6H-thieno[2,3-b]pyrrol-2-yl)methanone], the pEC50 on human CB2 (hCB2) and at human CB2 receptors was over 7.00 throughout. Besides, the pIC50 in assay [1] is 5.00 to 6.00.

Consider `COc1ccc(C(=O)c2cc3c(Cl)c(C)n(CCN4CCOCC4)c3s2)cc1` [Compound 140, (4-chloro-5-methyl-6-(2-morpholinoethyl)-6H-thieno[2,3-b]pyrrol-2-yl)(4-methoxyphenyl)methanone], for which the pEC50 at human CB2 (hCB2) and at human CB2 receptors was over 7.00 each time. The pIC50 in assay [1] is 5.00 to 6.00.

Consider `CCN(CC)CCn1c(C)cc2cc(C(=O)c3ccc(OC)nc3)sc21` [Compound 142, (6-(2-(diethylamino)ethyl)-5-methyl-6H-thieno[2,3-b]pyrrol-2-yl)(6-methoxypyridin-3-yl)methanone], for which the pEC50 at human CB2 (hCB2) and at human CB2 receptors was 6.00 to 7.00 in each case. For the same compound, the pIC50 in assay [1] was under 5.00.

Regarding `COc1ccc(C(=O)c2cc3cc(C)n(CC4CCOCC4)c3s2)cn1` [Compound 144, (6-methoxypyridin-3-yl)(5-methyl-6-((tetrahydro-2H-pyran-4-yl)methyl)-6H-thieno[2,3-b]pyrrol-2-yl)methanone], the negative-log EC50 (pEC50) at human CB2 (hCB2) and at human CB2 receptors was over 7.00 throughout. The pIC50 in assay [1] was 5.00 to 6.00.

As to `COc1ccc(C(=O)c2cc3cc(C)n(CC4CCOCC4)c3s2)c(F)c1` [Compound 145, (2-fluoro-4-methoxyphenyl)(5-methyl-6-((tetrahydro-2H-pyran-4-yl)methyl)-6H-thieno[2,3-b]pyrrol-2-yl)methanone], the pEC50 at human CB2 (hCB2) and on human CB2 receptors was over 7.00 each time. The negative-log IC50 (pIC50) in assay [1] is 5.00 to 6.00.
